{"source": "paper PMC11831560", "about": "“Development of the Pyrido[2,3-d]pyrimidin-7(8H)-one Scaffold toward Potent and Selective NUAK1 Inhibitors” (ACS Medicinal Chemistry Letters, 2025)", "assay_in_all_cases": "Kinase panel radiometric filter binding (33P-ATP)", "assay_type_in_all_cases": "biochemical", "design_in_all_cases": "dose or concentration left out as unconfirmed", "key": {"TTBK2": {"target": "TTBK2 (Homo sapiens, UniProt Q6IQ55)", "description": "(§1) Table S4: AMPKA kinase activity data (ADP-Glo assay)\n(§2) Compound pIC50 (Fold selectivity\n(§3) Table S5. Kinase selectivity screening for 9 and 24 at 1 µM against a general kinase panel of 140 targets\n(§4) in radiometric filter binding assay using 33P-γ−ATP at the MRC PPU International Centre for Kinase\n(§5) Profiling, University of Dundee. pIC50 values were determined for compounds with <20% activity\n(§6) Kinase activity s.d. pIC50 activity s.d. pIC50"}, "TAO1": {"target": "TAO1 (Homo sapiens, UniProt Q7L7X3)", "description": "as §1, §2, §3, §4, §5, §6"}, "EPH-A4": {"target": "EPH-A4 (Homo sapiens, UniProt P54764)", "sequence (P54764 20-986)": "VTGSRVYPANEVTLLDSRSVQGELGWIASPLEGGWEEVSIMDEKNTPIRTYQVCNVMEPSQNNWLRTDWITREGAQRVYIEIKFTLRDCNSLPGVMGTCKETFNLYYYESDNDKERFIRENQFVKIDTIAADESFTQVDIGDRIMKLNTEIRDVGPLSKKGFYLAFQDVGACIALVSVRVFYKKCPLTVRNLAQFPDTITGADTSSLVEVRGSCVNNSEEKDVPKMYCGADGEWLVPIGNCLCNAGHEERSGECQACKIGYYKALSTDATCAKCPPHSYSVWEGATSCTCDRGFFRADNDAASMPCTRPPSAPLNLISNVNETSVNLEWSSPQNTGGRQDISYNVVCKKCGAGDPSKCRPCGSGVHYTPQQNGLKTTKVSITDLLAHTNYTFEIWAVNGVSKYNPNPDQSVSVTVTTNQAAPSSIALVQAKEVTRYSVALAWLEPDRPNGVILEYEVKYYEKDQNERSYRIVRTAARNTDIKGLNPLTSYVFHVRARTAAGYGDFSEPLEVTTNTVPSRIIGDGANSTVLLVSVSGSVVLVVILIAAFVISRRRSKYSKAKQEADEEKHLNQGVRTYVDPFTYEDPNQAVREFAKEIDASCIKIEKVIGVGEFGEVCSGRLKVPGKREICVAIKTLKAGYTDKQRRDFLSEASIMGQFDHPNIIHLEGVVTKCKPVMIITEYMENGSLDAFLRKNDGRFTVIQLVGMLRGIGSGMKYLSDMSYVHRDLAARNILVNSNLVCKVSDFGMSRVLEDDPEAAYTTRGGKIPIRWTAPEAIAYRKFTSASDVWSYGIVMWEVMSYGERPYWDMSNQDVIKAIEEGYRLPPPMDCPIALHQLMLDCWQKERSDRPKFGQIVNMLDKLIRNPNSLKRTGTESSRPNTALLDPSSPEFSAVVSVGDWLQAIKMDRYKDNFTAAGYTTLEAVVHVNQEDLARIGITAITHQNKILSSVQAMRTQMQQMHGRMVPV", "description": "as §1, §2, §3, §4, §5, §6"}, "MKK2": {"target": "MKK2 (Homo sapiens, UniProt P36507)", "description": "as §1, §2, §3, §4, §5, §6"}, "CDK2-Cyclin A": {"target": "CDK2-Cyclin A (Homo sapiens, UniProt P24941)", "description": "as §1, §2, §3, §4, §5, §6"}, "PRAK": {"target": "PRAK (Homo sapiens, UniProt Q8IW41)", "description": "as §1, §2, §3, §4, §5, §6"}, "LKB1": {"target": "LKB1 (Homo sapiens, UniProt Q15831)", "description": "as §1, §2, §3, §4, §5, §6"}, "OSR1": {"target": "OSR1 (Homo sapiens, UniProt O95747)", "description": "as §1, §2, §3, §4, §5, §6"}, "EPH-B3": {"target": "EPH-B3 (Homo sapiens, UniProt P54753)", "description": "as §1, §2, §3, §4, §5, §6"}, "JNK1": {"target": "JNK1 (Homo sapiens, UniProt P45983)", "description": "as §1, §2, §3, §4, §5, §6"}, "CDK9-Cyclin T1": {"target": "CDK9-Cyclin T1 (Homo sapiens, UniProt P50750)", "description": "as §1, §2, §3, §4, §5, §6"}, "SGK1": {"target": "SGK1 (Homo sapiens, UniProt O00141)", "description": "as §1, §2, §3, §4, §5, §6"}, "MARK3": {"target": "T1, MARK3 (Homo sapiens, UniProt P27448)", "T1 construct": "purchased MRC PPU", "description": "as §1, §2, §3, §4, §5, §6"}, "PAK4": {"target": "PAK4 (Homo sapiens, UniProt O96013)", "description": "as §1, §2, §3, §4, §5, §6"}, "IKKe": {"target": "IKKe (Homo sapiens, UniProt Q14164)", "sequence (Q14164 whole entry)": "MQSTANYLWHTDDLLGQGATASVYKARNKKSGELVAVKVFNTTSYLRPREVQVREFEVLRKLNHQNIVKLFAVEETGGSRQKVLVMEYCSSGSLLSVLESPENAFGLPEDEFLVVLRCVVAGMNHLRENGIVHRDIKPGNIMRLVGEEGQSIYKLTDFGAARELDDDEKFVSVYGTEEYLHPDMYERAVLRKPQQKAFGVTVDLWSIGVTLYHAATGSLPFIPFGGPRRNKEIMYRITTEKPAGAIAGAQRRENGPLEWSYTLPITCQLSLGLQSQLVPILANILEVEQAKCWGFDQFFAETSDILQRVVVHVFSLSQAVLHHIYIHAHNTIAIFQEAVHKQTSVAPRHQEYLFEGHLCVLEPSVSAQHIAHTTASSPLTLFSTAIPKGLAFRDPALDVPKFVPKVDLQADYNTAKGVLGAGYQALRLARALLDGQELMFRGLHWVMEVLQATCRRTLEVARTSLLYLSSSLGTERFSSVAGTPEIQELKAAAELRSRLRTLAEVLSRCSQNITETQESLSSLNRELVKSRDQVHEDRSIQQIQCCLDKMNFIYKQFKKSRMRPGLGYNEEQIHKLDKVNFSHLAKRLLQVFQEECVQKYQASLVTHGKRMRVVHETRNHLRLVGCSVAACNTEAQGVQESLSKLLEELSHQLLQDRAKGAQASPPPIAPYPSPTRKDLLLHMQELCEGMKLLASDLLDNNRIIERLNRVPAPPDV", "description": "as §1, §2, §3, §4, §5, §6"}, "RSK1": {"target": "RSK1 (Homo sapiens, UniProt Q15418)", "description": "as §1, §2, §3, §4, §5, §6"}, "Src": {"target": "Src (Homo sapiens, UniProt P12931)", "description": "as §1, §2, §3, §4, §5, §6"}, "Lck": {"target": "Lck (Homo sapiens, UniProt P06239)", "description": "as §1, §2, §3, §4, §5, §6"}, "TTBK1": {"target": "TTBK1 (Homo sapiens, UniProt Q5TCY1)", "description": "as §1, §2, §3, §4, §5, §6"}, "SYK": {"target": "SYK (Homo sapiens, UniProt P43405)", "description": "as §1, §2, §3, §4, §5, §6"}, "CSK": {"target": "CSK (Homo sapiens, UniProt P41240)", "description": "as §1, §2, §3, §4, §5, §6"}, "MNK1": {"target": "MNK1 (Homo sapiens, UniProt Q9BUB5)", "sequence (Q9BUB5 whole entry)": "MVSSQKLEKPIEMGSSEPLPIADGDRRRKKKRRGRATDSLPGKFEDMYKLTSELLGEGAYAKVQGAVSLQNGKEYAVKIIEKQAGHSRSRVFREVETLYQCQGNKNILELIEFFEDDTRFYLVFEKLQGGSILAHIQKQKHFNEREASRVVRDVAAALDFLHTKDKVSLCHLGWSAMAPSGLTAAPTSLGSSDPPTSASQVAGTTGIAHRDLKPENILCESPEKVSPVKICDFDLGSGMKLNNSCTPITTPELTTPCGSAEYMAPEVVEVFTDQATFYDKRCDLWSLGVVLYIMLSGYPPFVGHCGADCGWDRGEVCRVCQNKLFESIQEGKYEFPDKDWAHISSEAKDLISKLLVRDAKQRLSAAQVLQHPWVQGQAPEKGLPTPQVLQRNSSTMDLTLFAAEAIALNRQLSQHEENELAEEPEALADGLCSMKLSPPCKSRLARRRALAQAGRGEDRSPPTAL", "description": "as §1, §2, §3, §4, §5, §6"}, "ROCK 2": {"target": "ROCK 2 (Homo sapiens, UniProt O75116)", "description": "as §1, §2, §3, §4, §5, §6"}, "PDGFRA": {"target": "PDGFRA (Homo sapiens, UniProt P16234)", "sequence (P16234 24-1089)": "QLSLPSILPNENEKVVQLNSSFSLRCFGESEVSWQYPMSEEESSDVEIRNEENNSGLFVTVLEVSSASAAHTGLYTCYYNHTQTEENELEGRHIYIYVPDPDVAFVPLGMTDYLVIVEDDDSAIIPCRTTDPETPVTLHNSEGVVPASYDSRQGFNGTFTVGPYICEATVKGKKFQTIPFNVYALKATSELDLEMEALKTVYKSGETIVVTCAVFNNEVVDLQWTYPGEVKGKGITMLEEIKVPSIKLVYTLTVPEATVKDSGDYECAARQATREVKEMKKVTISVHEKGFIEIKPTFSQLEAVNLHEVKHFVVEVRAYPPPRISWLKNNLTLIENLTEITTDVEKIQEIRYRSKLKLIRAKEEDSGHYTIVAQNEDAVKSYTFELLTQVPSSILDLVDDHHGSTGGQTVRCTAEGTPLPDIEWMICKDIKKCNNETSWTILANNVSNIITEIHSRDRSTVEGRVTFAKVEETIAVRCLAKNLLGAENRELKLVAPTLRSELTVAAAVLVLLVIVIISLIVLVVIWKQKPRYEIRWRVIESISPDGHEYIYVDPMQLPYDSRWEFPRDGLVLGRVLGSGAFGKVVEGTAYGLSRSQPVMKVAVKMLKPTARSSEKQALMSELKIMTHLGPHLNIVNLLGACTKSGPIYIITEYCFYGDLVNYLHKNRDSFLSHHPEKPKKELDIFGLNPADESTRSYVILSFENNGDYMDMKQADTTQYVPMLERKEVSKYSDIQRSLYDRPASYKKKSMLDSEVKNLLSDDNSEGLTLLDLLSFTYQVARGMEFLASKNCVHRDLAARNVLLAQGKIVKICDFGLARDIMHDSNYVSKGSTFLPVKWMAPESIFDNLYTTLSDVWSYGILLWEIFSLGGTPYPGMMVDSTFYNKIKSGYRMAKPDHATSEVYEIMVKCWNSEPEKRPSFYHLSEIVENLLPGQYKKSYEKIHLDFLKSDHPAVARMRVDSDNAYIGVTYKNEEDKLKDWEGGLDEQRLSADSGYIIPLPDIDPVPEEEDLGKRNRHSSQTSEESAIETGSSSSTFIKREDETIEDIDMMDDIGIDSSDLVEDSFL", "description": "as §1, §2, §3, §4, §5, §6"}, "DDR2": {"target": "DDR2 (Homo sapiens, UniProt Q16832)", "description": "as §1, §2, §3, §4, §5, §6"}, "CLK2": {"target": "CLK2 (Homo sapiens, UniProt P49760)", "sequence (P49760 whole entry)": "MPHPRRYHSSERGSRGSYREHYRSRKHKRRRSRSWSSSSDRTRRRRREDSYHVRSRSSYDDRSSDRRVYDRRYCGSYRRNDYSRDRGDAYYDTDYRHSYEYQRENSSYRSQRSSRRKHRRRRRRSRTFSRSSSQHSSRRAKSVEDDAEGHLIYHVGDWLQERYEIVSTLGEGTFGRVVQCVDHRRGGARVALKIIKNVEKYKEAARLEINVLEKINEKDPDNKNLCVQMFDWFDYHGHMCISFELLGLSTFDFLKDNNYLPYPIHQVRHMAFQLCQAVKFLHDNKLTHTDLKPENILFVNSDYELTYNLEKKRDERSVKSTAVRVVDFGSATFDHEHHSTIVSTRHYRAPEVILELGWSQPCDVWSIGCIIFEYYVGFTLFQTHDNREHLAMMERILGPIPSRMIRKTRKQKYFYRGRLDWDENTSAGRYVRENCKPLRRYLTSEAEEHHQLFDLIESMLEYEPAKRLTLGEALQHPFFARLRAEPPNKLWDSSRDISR", "description": "as §1, §2, §3, §4, §5, §6"}, "PKBa": {"target": "PKBa (Homo sapiens, UniProt P31749)", "description": "as §1, §2, §3, §4, §5, §6"}, "STK33": {"target": "STK33 (Homo sapiens, UniProt Q9BYT3)", "sequence (Q9BYT3 whole entry)": "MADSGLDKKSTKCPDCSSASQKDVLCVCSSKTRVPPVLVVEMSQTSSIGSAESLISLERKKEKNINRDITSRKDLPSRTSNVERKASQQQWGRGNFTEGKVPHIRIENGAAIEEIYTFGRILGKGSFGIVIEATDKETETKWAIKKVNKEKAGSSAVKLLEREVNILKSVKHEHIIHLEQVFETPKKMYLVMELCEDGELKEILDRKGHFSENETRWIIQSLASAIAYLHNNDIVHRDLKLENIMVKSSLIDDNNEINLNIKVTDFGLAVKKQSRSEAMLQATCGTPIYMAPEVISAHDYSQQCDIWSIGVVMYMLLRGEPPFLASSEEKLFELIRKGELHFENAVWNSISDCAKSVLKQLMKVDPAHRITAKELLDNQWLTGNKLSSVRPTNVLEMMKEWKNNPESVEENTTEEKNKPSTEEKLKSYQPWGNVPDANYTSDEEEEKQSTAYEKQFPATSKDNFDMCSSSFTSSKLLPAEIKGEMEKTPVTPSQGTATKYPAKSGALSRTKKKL", "description": "as §1, §2, §3, §4, §5, §6"}, "HIPK3": {"target": "HIPK3 (Homo sapiens, UniProt Q9H422)", "description": "as §1, §2, §3, §4, §5, §6"}, "MST2": {"target": "MST2 (Homo sapiens, UniProt Q13188)", "sequence (Q13188 whole entry)": "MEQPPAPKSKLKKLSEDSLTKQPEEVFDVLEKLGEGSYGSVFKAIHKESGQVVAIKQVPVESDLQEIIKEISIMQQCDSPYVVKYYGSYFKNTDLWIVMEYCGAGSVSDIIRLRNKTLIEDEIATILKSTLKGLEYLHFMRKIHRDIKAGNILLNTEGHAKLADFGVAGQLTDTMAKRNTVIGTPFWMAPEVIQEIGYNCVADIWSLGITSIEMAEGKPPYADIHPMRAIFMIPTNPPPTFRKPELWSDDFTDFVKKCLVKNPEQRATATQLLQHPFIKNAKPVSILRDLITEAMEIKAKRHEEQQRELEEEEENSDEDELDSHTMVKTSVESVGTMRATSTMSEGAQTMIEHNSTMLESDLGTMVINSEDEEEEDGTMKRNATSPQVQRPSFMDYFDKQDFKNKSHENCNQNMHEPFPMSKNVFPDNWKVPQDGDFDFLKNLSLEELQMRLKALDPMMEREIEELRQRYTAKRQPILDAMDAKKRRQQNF", "description": "as §1, §2, §3, §4, §5, §6"}, "HIPK2": {"target": "HIPK2 (Homo sapiens, UniProt Q9H2X6)", "description": "as §1, §2, §3, §4, §5, §6"}, "IKKb": {"target": "IKKb (Homo sapiens, UniProt O14920)", "description": "as §1, §2, §3, §4, §5, §6"}, "PIM1": {"target": "PIM1 (Homo sapiens, UniProt P11309)", "sequence (P11309 whole entry)": "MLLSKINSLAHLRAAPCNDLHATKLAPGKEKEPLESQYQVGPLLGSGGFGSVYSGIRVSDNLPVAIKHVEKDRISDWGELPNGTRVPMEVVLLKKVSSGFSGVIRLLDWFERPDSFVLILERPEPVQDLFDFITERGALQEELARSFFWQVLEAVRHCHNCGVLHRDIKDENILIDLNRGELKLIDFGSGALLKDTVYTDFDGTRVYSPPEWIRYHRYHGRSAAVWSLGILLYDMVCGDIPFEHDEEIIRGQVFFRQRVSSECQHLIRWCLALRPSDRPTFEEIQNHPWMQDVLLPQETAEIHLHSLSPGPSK", "description": "as §1, §2, §3, §4, §5, §6"}, "WNK1": {"target": "WNK1 (Homo sapiens, UniProt Q9H4A3)", "description": "as §1, §2, §3, §4, §5, §6"}, "CAMKKb": {"target": "CAMKKb (Homo sapiens, UniProt Q96RR4)", "description": "as §1, §2, §3, §4, §5, §6"}}}
{"smiles": "CN1C2CC1CN(c1ccc(Nc3ncc4ccn(CC5CCOCC5)c4n3)cc1)C2", "note": "[Compound 24]", "values": [{"measurement": "% activity remaining", "setting": "TTBK2", "value": 96, "unit": "%"}, {"measurement": "% activity remaining", "setting": "TAO1", "value": 97, "unit": "%"}, {"measurement": "% activity remaining", "setting": "EPH-A4", "value": 91, "unit": "%"}, {"measurement": "% activity remaining", "setting": "MKK2", "value": 91, "unit": "%"}, {"measurement": "% activity remaining", "setting": "CDK2-Cyclin A", "value": 79, "unit": "%"}, {"measurement": "% activity remaining", "setting": "PRAK", "value": 83, "unit": "%"}, {"measurement": "% activity remaining", "setting": "LKB1", "value": 100, "unit": "%"}, {"measurement": "% activity remaining", "setting": "OSR1", "value": 70, "unit": "%"}, {"measurement": "% activity remaining", "setting": "EPH-B3", "value": 77, "unit": "%"}, {"measurement": "% activity remaining", "setting": "JNK1", "value": 97, "unit": "%"}, {"measurement": "% activity remaining", "setting": "CDK9-Cyclin T1", "value": 56, "unit": "%"}, {"measurement": "% activity remaining", "setting": "SGK1", "value": 72, "unit": "%"}, {"measurement": "% activity remaining", "setting": "MARK3", "value": 104, "unit": "%"}, {"measurement": "% activity remaining", "setting": "PAK4", "value": 89, "unit": "%"}, {"measurement": "% activity remaining", "setting": "IKKe", "value": 93, "unit": "%"}, {"measurement": "% activity remaining", "setting": "RSK1", "value": 74, "unit": "%"}, {"measurement": "% activity remaining", "setting": "Src", "value": 84, "unit": "%"}, {"measurement": "% activity remaining", "setting": "Lck", "value": 67, "unit": "%"}, {"measurement": "% activity remaining", "setting": "TTBK1", "value": 103, "unit": "%"}, {"measurement": "% activity remaining", "setting": "SYK", "value": 81, "unit": "%"}, {"measurement": "% activity remaining", "setting": "CSK", "value": 97, "unit": "%"}, {"measurement": "% activity remaining", "setting": "MNK1", "value": 72, "unit": "%"}, {"measurement": "% activity remaining", "setting": "ROCK 2", "value": 78, "unit": "%"}, {"measurement": "% activity remaining", "setting": "PDGFRA", "value": 90, "unit": "%"}, {"measurement": "% activity remaining", "setting": "DDR2", "value": 82, "unit": "%"}, {"measurement": "% activity remaining", "setting": "CLK2", "value": 90, "unit": "%"}, {"measurement": "% activity remaining", "setting": "PKBa", "value": 110, "unit": "%"}, {"measurement": "% activity remaining", "setting": "STK33", "value": 93, "unit": "%"}, {"measurement": "% activity remaining", "setting": "HIPK3", "value": 73, "unit": "%"}, {"measurement": "% activity remaining", "setting": "MST2", "value": 91, "unit": "%"}, {"measurement": "% activity remaining", "setting": "HIPK2", "value": 85, "unit": "%"}, {"measurement": "% activity remaining", "setting": "IKKb", "value": 103, "unit": "%"}, {"measurement": "% activity remaining", "setting": "PIM1", "value": 84, "unit": "%"}, {"measurement": "% activity remaining", "setting": "WNK1", "value": 84, "unit": "%"}, {"measurement": "% activity remaining", "setting": "CAMKKb", "value": 43, "unit": "%"}]}
{"smiles": "Cc1cc(=O)n(C2CCCC2)c2nc(Nc3ccc(N4CC5CC(C4)N5C)cc3)ncc12", "note": "[Compound 9]", "values": [{"measurement": "% activity remaining", "setting": "TTBK2", "value": 97, "unit": "%"}, {"measurement": "% activity remaining", "setting": "TAO1", "value": 91, "unit": "%"}, {"measurement": "% activity remaining", "setting": "EPH-A4", "value": 90, "unit": "%"}, {"measurement": "% activity remaining", "setting": "MKK2", "value": 94, "unit": "%"}, {"measurement": "% activity remaining", "setting": "CDK2-Cyclin A", "value": 59, "unit": "%"}, {"measurement": "% activity remaining", "setting": "PRAK", "value": 99, "unit": "%"}, {"measurement": "% activity remaining", "setting": "LKB1", "value": 104, "unit": "%"}, {"measurement": "% activity remaining", "setting": "OSR1", "value": 67, "unit": "%"}, {"measurement": "% activity remaining", "setting": "EPH-B3", "value": 95, "unit": "%"}, {"measurement": "% activity remaining", "setting": "JNK1", "value": 47, "unit": "%"}, {"measurement": "% activity remaining", "setting": "CDK9-Cyclin T1", "value": 67, "unit": "%"}, {"measurement": "% activity remaining", "setting": "SGK1", "value": 96, "unit": "%"}, {"measurement": "% activity remaining", "setting": "MARK3", "value": 35, "unit": "%"}, {"measurement": "% activity remaining", "setting": "PAK4", "value": 50, "unit": "%"}, {"measurement": "% activity remaining", "setting": "IKKe", "value": 84, "unit": "%"}, {"measurement": "% activity remaining", "setting": "RSK1", "value": 41, "unit": "%"}, {"measurement": "% activity remaining", "setting": "Src", "value": 53, "unit": "%"}, {"measurement": "% activity remaining", "setting": "Lck", "value": 64, "unit": "%"}, {"measurement": "% activity remaining", "setting": "TTBK1", "value": 92, "unit": "%"}, {"measurement": "% activity remaining", "setting": "SYK", "value": 49, "unit": "%"}, {"measurement": "% activity remaining", "setting": "CSK", "value": 104, "unit": "%"}, {"measurement": "% activity remaining", "setting": "MNK1", "value": 96, "unit": "%"}, {"measurement": "% activity remaining", "setting": "ROCK 2", "value": 56, "unit": "%"}, {"measurement": "% activity remaining", "setting": "PDGFRA", "value": 57, "unit": "%"}, {"measurement": "% activity remaining", "setting": "DDR2", "value": 39, "unit": "%"}, {"measurement": "% activity remaining", "setting": "CLK2", "value": 23, "unit": "%"}, {"measurement": "% activity remaining", "setting": "PKBa", "value": 103, "unit": "%"}, {"measurement": "% activity remaining", "setting": "STK33", "value": 101, "unit": "%"}, {"measurement": "% activity remaining", "setting": "HIPK3", "value": 112, "unit": "%"}, {"measurement": "% activity remaining", "setting": "MST2", "value": 62, "unit": "%"}, {"measurement": "% activity remaining", "setting": "HIPK2", "value": 54, "unit": "%"}, {"measurement": "% activity remaining", "setting": "IKKb", "value": 93, "unit": "%"}, {"measurement": "% activity remaining", "setting": "PIM1", "value": 90, "unit": "%"}, {"measurement": "% activity remaining", "setting": "WNK1", "value": 103, "unit": "%"}, {"measurement": "% activity remaining", "setting": "CAMKKb", "value": 86, "unit": "%"}]}
